According to patent publication EP0664704B1, “USE OF DOPAMINE AGONISTS TO ACTIVATE GAMMA-[…]” (SCHERING AKTIENGESELLSCHAFT, priority 1992, dated 1994):

Assays:
[1] = Six-month continuous s.c. infusion at extremely high dose in monkeys; type: in vivo, Affen; settings: monkey, 1 mg/kg/Tag s.c. infused continuously over 6 months (10-fold maximal human dose)
[2] = tested on: Membranen von weißen Blutzellen; assay: Accumulation in membranes of white blood cells, detected by UV fluorescence; settings: UV fluorescence of the molecule
Source text: (§1) Von 10 gesunden jungen Freiwilligen wurden Vollblut-Assays (s.o.) mit 4 verschiedenen Konzentrationen von Lisurid zusammen mit dem Stimulans (PHA) inkubiert. […] Dies läßt vermuten, daß es sich bei den Patientendaten nicht um kurzzeitige Effekte der Substanz auf die immunkompetenten Zellen (vor allem T-Lymphozyten und NK-Zellen) handelt. Vielmehr werden über Rezeptor/postrezeptorische Mechanismen Effekte auf die Freisetzung und/oder Synthese von IFN-γ und anderen Faktoren vermittelt. Auch ein direkter oder indirekter Effekt auf das Genom ist möglich. Für die therapeutische Anwendung erwünscht ist die beobachtete Anreicherung von Dopaminagonisten in den Membranen von weißen Blutzellen, wie sie im Falle von Lisurid durch die UV-Fluoreszenz dieses Moleküls nachweisbar ist.

IFN-γ = assay: PHA-stimulated IFN-γ release in blood of patients treated with subcutaneous lisuride, ELISA of supernatant; type: in vivo, Patienten
Experimental: (§2) Wir untersuchten die mitogen-induzierte Zytokinfreisetzung von 18 Patienten, die wegen M. Parkinson (n=13) oder Dystonie (n=5) mit subkutanem Lisurid behandelt wurden. 18 Patienten wurden mit 11 gesunden altersgleichen Kontrollen verglichen. Nach mitogener Stimulation mit 50 µl Phythämagglutinin (PHA) (5 µg/ml) über 24 h (TNF-α) bzw. 72h (IFN-γ) wurden TNF-α und IFN-γ im Überstand mit einem Elisa Assay (Gallati 1987) bestimmt: Da die Daten nicht normal verteilt sind, wurde der Mann-Whitney-Test zur Analyse der Gruppenmittelwerte gerechnet. Es fanden sich folgende Ergebnisse:
(§3) Es wurde dieselbe Lisurid-Gruppe (n=18) wie o.a. mit zwei Gruppen gesunder Freiwilliger verglichen: Einer Gruppe junger (Alter unter 50 Jahre) und mit einer Gruppe älterer Gesunder (Alter über 65 Jahre). Die Zytokinmessung und statistische Auswertung erfolgte wie oben erwähnt. […] Dies legt den Schluß nahe, daß die alterskorreliert abnehmende IFN-γ und TNF-α Produktion durch dopaminerge Therapie antagonisiert werden kann.
(§4) Den Daten ist zu entnehmen, daß durch die Behandlung mit Lisurid nach Stimulation eine vermehrte Freisetzung von IFN-γ und TNF-α erfolgt. Die Freisetzung der Cytokine ist erst in vitro in einer Kurzzeit-Kultur des Vollblutes entstanden. In der Kontrollgruppe ohne PHA Zugabe ließ sich kein IFN-γ nachweisen. […]

Zytokin-Freisetzung = assay: In vitro cytokine release in whole-blood assays co-incubated with lisuride and PHA; type: cell-based, gesunden jungen Freiwilligen; settings: whole blood of 10 healthy young volunteers; without lisuride vs low, therapeutic and toxic lisuride concentration, together with PHA
Experimental: as §2, §1

Tumoren = assay: Two-year treatment of rodents: tumour frequency and severity, survival; type: in vivo, Mäusen und Ratten; settings: male and female mice and rats, various doses over 2 years; for Häufigkeit und Schwere von verschiedenen Tumoren: partly dose-dependent, leukaemias, lymphomas, tumours of mammae, pituitary, ovaries
Source text: In vivo-Untersuchungen an Nager-Gruppen von männlichen und weiblichen Mäusen und Ratten wurden mit verschiedenen Dosen von Lisurid und Tergurid über 2 Jahre behandelt. […] Dies läßt eine therapeutisch erwünschte lokale Freisetzung dieser Faktoren bei niederer Dosierung von Dopaminagonisten erwarten, die erst bei excessiver Dosierung zur Ausschwemmung ins Blut gelangt und damit die Nebenwirkung einer direkten IFN-γ-Anwendung bewirkt.

TNF-α = assay: PHA-stimulated TNF-α release in blood of patients treated with subcutaneous lisuride, ELISA of supernatant; type: in vivo, Patienten
Experimental: as §2, §3, §4

[3] = lisuride group (n=18, median age 61) vs young healthy group (under 50 years) and older healthy group (over 65 years)

SMILES: CCN(CC)C(=O)NC1C=C2c3cccc4[nH]cc(c34)CC2N(C)C1 (centres unmarked) [Lisurid]
- Befunde bei extrem hoher parenteraler Applikation [1]: wie sie für eine Überproduktion oder Freisetzung von IFN-γ und vergleichbarer Substanzen typisch sind
- Anreicherung in den Membranen von weißen Blutzellen [2]: nachweisbar
- IFN-γ Produktion nach mitogener Stimulation (IFN-γ; [3]): signifikant erhöht
- IFN-γ Freisetzung nach PHA-Stimulation (IFN-γ; lisuride-treated patients (n=18, M. Parkinson or Dystonie) vs 11 healthy age-matched controls, PHA 72 h, Mann-Whitney p=0.039): signifikant erhöht
- Zytokin-Freisetzung bei Koinkubation mit Lisurid (Zytokin-Freisetzung): keine Unterschiede
- Anteil überlebender Tiere (Tumoren): signifikante Erhöhung
- Häufigkeit und Schwere von verschiedenen Tumoren (Tumoren): signifikante Reduktion
- α-TNF Produktion nach mitogener Stimulation (TNF-α; [3]): signifikant erhöht
- TNF-α Freisetzung (TNF-α; lisuride-treated patients (n=18) vs 11 healthy age-matched controls, PHA 24 h, Mann-Whitney p=0.055): deutlich erhöht

SMILES: CCN(CC)C(=O)N[C@H]1C[C@@H]2c3cccc4[nH]cc(c34)C[C@H]2N(C)C1 [Tergurid]
- Anteil überlebender Tiere (Tumoren): signifikante Erhöhung
- Häufigkeit und Schwere von verschiedenen Tumoren (Tumoren): signifikante Reduktion
